Test results: PMC3606911 (Journal of enzyme inhibition and medicinal chemistry, 2012)
“Also recorded” adds a separate entry of the source. Like-named read-outs stand apart in the source and are kept apart here. Blank lines part the entries; values can stand above or below the compound they belong to.

Columns and labels:
FAAH [1] = conditions: cited from earlier work
COX isoform = conditions: cited from earlier work
[2] = tested on: acetic acid-induced abdominal stretching; conditions: rats, 20 mg/kg i.p., cited from earlier work
ovine COX-1 = molecular target: T1, ovine COX-1 (Ovis aries, UniProt P05979); test: COX oxygen electrode assay, COX-1; type: biochemical; conditions: for Initial activity (% of vehicle control) COX-1 (AEA): substrate 10 μM
T1 sequence (P05979 25-600): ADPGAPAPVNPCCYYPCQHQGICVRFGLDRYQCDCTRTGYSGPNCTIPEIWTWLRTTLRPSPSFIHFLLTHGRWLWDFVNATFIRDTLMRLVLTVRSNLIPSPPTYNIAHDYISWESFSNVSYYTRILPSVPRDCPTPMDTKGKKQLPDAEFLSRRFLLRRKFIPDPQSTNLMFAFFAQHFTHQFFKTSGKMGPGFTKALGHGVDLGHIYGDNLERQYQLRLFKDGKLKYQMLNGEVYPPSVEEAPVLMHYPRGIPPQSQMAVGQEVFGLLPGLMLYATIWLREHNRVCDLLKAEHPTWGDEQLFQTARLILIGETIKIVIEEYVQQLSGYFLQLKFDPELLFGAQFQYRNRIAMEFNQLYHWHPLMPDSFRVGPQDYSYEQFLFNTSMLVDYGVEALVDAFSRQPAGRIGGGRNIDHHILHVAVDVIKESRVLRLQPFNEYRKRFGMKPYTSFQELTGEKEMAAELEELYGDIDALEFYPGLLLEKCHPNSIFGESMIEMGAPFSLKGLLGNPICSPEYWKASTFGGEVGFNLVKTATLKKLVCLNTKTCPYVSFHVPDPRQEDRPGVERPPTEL

[3] = tested on: acetic acid-induced abdominal stretching (visceral nociception); test: Acetic acid-induced abdominal stretching test; type: in vivo; conditions: mice, 30 mg/kg s.c., 30 min before acetic acid
[4] = cited from earlier work
FAAH [5] = molecular target: T2, FAAH (Rattus norvegicus, UniProt P97612); test: FAAH assay: hydrolysis of [3H]AEA by rat brain homogenates; type: biochemical
T2 sequence (P97612 1-579): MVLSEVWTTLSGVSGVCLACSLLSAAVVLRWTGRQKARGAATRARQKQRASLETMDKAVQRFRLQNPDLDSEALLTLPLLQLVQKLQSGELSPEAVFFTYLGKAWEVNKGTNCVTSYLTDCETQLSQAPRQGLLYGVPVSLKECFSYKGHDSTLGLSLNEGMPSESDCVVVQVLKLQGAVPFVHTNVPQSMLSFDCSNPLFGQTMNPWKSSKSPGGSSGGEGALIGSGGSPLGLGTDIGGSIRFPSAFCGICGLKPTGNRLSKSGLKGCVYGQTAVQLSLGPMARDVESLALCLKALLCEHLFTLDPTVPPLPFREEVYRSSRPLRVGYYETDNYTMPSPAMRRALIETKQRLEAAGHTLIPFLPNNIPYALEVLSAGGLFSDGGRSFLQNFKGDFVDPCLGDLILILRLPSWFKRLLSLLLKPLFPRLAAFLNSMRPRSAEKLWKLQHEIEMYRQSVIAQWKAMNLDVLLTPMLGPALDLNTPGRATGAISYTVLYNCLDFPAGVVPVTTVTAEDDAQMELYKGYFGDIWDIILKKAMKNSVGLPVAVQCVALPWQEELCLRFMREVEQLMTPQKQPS

[6] = tested on: acetic acid-induced abdominal stretching; conditions: mice, 10 and 30 mg/kg s.c.; cited from earlier work
human recombinant COX-2 = molecular target: T3, human recombinant COX-2 (Homo sapiens, UniProt P35354); test: COX oxygen electrode assay, COX-2; type: biochemical; conditions: for Initial activity (% of vehicle control) COX-2 (AEA) / Initial activity (% of vehicle control) COX-2 (AA): vehicle EtOH; for Initial activity (% of vehicle control) COX-2 (AEA): substrate AEA 10 μM; for Initial activity (% of vehicle control) COX-2 (AA): substrate AA 10 μM
T3 sequence (P35354 18-604): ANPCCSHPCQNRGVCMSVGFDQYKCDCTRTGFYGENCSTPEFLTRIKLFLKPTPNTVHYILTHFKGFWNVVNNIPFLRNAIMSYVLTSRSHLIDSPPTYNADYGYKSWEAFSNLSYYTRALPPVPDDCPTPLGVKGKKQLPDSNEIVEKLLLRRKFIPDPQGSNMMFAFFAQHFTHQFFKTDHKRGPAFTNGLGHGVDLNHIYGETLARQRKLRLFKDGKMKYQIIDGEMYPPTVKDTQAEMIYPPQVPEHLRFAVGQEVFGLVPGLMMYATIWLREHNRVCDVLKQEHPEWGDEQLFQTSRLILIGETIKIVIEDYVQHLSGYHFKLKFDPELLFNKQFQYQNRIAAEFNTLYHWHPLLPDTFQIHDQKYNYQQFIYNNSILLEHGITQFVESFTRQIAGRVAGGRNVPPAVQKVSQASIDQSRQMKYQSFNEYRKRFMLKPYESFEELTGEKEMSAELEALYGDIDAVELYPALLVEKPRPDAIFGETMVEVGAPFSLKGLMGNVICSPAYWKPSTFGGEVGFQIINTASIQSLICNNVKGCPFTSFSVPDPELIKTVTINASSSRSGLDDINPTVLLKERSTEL

[7] = read-out: inhibition of the cyclooxygenation of AA by COX-2

Compound: CC(=O)Nc1ccc(OC(=O)C(C)c2ccc(Nc3ccnc(C(F)(F)F)c3)cc2)cc1 (centres unmarked) [4-acetamidophenyl 2-(4-(2-(trifluoromethyl)pyridin-4-ylamino)phenyl)propanoate, reference compound]
- IC50 (FAAH [1]; read-out: IC50 FAAH): 0.1 µM
- inhibition of COX isoforms (COX isoform): did not inhibit either COX isoform

Compound: CC(C)Cc1ccc(C(C)C(=O)O)cc1 (centres unmarked) [Compound 1, Ibuprofen, reference compound]
- activity in the acetic acid-induced abdominal stretching test [2]: significantly less effective than 20 mg/kg of 2

Compound: Cc1cccnc1NC(=O)C(C)c1ccc(CC(C)C)cc1 (centres unmarked) [Compound 2, N-(3-methylpyridin-2-yl)-2-(4′-isobutylphenyl)propionamide]
- COX isoform selectivity with AA as substrate (ovine COX-1; AA as substrate, COX-1 vs COX-2): COX-1 selective
- IC50 (ovine COX-1; IC50 COX-1 (approximate), AA 10 μM as substrate, DMSO as vehicle): ~240 µM
- IC50 (ovine COX-1; IC50 COX-1 (approximate), AA 10 μM as substrate, ethanol as vehicle): ~60 µM
- Initial activity (% of vehicle control) COX-1 (AEA) (ovine COX-1; vehicle DMSO, compound 20 μM): 106±15 (3) % of vehicle control
- Initial activity (% of vehicle control) COX-1 (AEA) (ovine COX-1; vehicle DMSO, compound 50 μM): 82±4 (6) % of vehicle control
- Initial activity (% of vehicle control) COX-1 (AEA) (ovine COX-1; vehicle DMSO, compound 100 μM): 63±6 (6) % of vehicle control
- Initial activity (% of vehicle control) COX-1 (AEA) (ovine COX-1; vehicle DMSO, compound 200 μM): 59±8 (6) % of vehicle control
- Initial activity (% of vehicle control) COX-1 (AEA) (ovine COX-1; vehicle DMSO, compound 400 μM): 36±0.9 (3) % of vehicle control
- Initial activity (% of vehicle control) COX-1 (AEA) (ovine COX-1; vehicle EtOH, compound 20 μM): 70±6 (3) % of vehicle control
- Initial activity (% of vehicle control) COX-1 (AEA) (ovine COX-1; vehicle EtOH, compound 50 μM): 57±0.6 (3) % of vehicle control
- Initial activity (% of vehicle control) COX-1 (AEA) (ovine COX-1; vehicle EtOH, compound 100 μM): 45±8 (3) % of vehicle control
- Initial activity (% of vehicle control) COX-1 (AEA) (ovine COX-1; vehicle EtOH, compound 200 μM): 14±4 (3) % of vehicle control
- number of abdominal stretches elicited by acetic acid [3]: active in vivo; also recorded: decreased the number of abdominal stretches
- acute ulcerogenesis [4]: much lower than seen with 1
- mode of inhibition of FAAH (FAAH [1]): acts non-competitively
- orders of magnitude more potent as an inhibitor of FAAH than ibuprofen (FAAH [1]): 2–3 orders of magnitude
- fold more potent than 1 as an FAAH inhibitor (FAAH [5]): approximately 250 fold
- FAAH/COX-1 potency ratio, ratio for 1 set to unity (FAAH [5]; higher number = increased FAAH inhibitory potency relative to COX-1 potency): ~ 500
- Max inhibition % (FAAH [5]; solvent DMSO): 100%
- Max inhibition % (FAAH [5]; solvent EtOH): 100%
- activity in the acetic acid-induced abdominal stretching test [6]: has analgesic activity; also recorded: greater than for a dose of 10 mg/kg s.c. and for 30 mg/kg of diclofenac
- activity in the acetic acid-induced abdominal stretching test ([2]; 20 mg/kg): has analgesic activity; also recorded: significantly greater reduction in stretching than the same dose of 1
- IC50 (human recombinant COX-2): ~19 µM
- inhibition at 300 µM (human recombinant COX-2; [7]): 41%
- Initial activity (% of vehicle control) COX-2 (AEA) (human recombinant COX-2; compound 3 μM): 111±15 (6) % of vehicle control
- Initial activity (% of vehicle control) COX-2 (AEA) (human recombinant COX-2; compound 10 μM): 77±10 (3) % of vehicle control
- Initial activity (% of vehicle control) COX-2 (AEA) (human recombinant COX-2; compound 20 μM): 51±17 (3) % of vehicle control
- Initial activity (% of vehicle control) COX-2 (AEA) (human recombinant COX-2; compound 50 μM): 0.7±9 (4) % of vehicle control
- Initial activity (% of vehicle control) COX-2 (AA) (human recombinant COX-2; compound 100 μM): 88±8 (3) % of vehicle control
- Initial activity (% of vehicle control) COX-2 (AA) (human recombinant COX-2; compound 300 μM): 59±4 (4) % of vehicle control

Compound: Cc1cccnc1OC(=O)C(C)c1ccc(CC(C)C)cc1 (centres unmarked) [Compound 3, 3-methylpyridin-2-yl 2-(4-isobutylphenyl)propanoate]
- Max inhibition % (FAAH [5]; solvent EtOH): 100%

Compound: Cc1cccnc1NC(=O)CNC(=O)C(C)c1ccc(CC(C)C)cc1 (centres unmarked) [Compound 9, 2-(4-Isobutylphenyl)-N-(2-(3-methylpyridin-2-ylamino)-2-oxoethyl)propanamide]
- IC50 (ovine COX-1): ~50 µM
- Initial activity (% of vehicle control) COX-1 (AEA) (ovine COX-1; vehicle EtOH, compound 20 μM): 76±8 (3) % of vehicle control
- Initial activity (% of vehicle control) COX-1 (AEA) (ovine COX-1; vehicle EtOH, compound 50 μM): 56±4 (3) % of vehicle control
- Initial activity (% of vehicle control) COX-1 (AEA) (ovine COX-1; vehicle EtOH, compound 100 μM): 23±4 (3) % of vehicle control
- IC50 (human recombinant COX-2): ~10 µM
- inhibition at 100 µM (human recombinant COX-2; [7]): 18%
- Initial activity (% of vehicle control) COX-2 (AEA) (human recombinant COX-2; compound 3 μM): 83±8 (3) % of vehicle control
- Initial activity (% of vehicle control) COX-2 (AEA) (human recombinant COX-2; compound 50 μM): −11±4 (3) % of vehicle control
- Initial activity (% of vehicle control) COX-2 (AA) (human recombinant COX-2; compound 100 μM): 82±5 (4) % of vehicle control

Compound: Cc1cccc(NC(=O)CNC(=O)C(C)c2ccc(CC(C)C)cc2)n1 (centres unmarked) [Compound 10, 2-(4-Isobutylphenyl)-N-(2-(6-methylpyridin-2-ylamino)-2-oxoethyl)propanamide]
- Max inhibition % (FAAH [5]; solvent EtOH): 100%

Now from value to compound:

- Max inhibition % (FAAH [5]; solvent DMSO): 90±3%
Compound: Cc1cccnc1NC(=O)CCNC(=O)C(C)c1ccc(CC(C)C)cc1 (centres unmarked) [Compound 11, 2-(4-Isobutylphenyl)-N-(3-(3-methylpyridin-2-ylamino)-3-oxopropyl)propanamide]

- Max inhibition % (FAAH [5]; solvent DMSO): 100%
Compound: CC(C)Cc1ccc(C(C)C(=O)NCC(=O)NCc2ccccn2)cc1 (centres unmarked) [Compound 12, 2-(4-Isobutylphenyl)-N-(2-oxo-2-(pyridin-2-ylmethylamino)ethyl)propanamide]

- Max inhibition % (FAAH [5]; solvent DMSO): 81±8%
Compound: CC(C)Cc1ccc(C(C)C(=O)NCC(=O)NCc2cccnc2)cc1 (centres unmarked) [Compound 13, 2-(4-Isobutylphenyl)-N-(2-oxo-2-(pyridin-3-ylmethylamino)ethyl)propanamide]
